According to patent US9242993B2, “Morpholino substituted bicyclic pyrimidine urea or carbamate derivatives as mTOR inhibitors” (CELLZOME LIMITED, priority 2011, dated 2016):

Experiments:
mTOR = mTOR (Homo sapiens, UniProt P42345); assay: biochemical
[1] = target: DNA-dependent protein kinase (DNA-PK) (Homo sapiens, UniProt P78527); assay: biochemical
[2] = system: S6RP serine-240/244 phosphorylation; assay: In vitro phospho-S6 cellular assay; format: cell-based; conditions: Homo sapiens; HEK293T/17 cells, 2 hours; read-out: pS6 inhibition value (IC50), activity level
Description: Activation of mTOR signaling results in phosphorylation of several downstream targets. In cells, mTOR exists in two different protein complexes. The mTOR Complex-1 (mTORC1) phosphorylates and activates S6 Kinase 1 (S6K1) and S6 Kinase 2 (S6K2) (also known as p70S6K) which then phosphorylate S6 Ribosomal Protein (S6RP) (also known as RPS6)3. S6RP is phosphorylated on serine 235, serine 236, serine 240 and serine 244 by both pS6K1 and pS6K2. The mTOR Complex-2 (mTORC2) phosphorylates AKT on serine 473 which activates the AKT signaling pathway.
The assay measures a test compound's inhibition of S6RP serine-240/244 phosphorylation and inhibition of Akt serine-473 phosphorylation in human embryonic kidney derived HEK293T/17 cells (ATCC CRL-11268).
The HEK293T/17 cell line is maintained in DMEM media (Invitrogen catalogue number 41965-039) supplemented with 10% FCS at 37° C. in a 5% CO2 humidified incubator.
Cells are seeded in 96-well plates at 40,000 cells/well (pS6RP S240/244 assay) or 80,000 cells/well (pAkt S473 assay) in 90 μl growth media (DMEM, 2% FCS). Plates are incubated for 1 hour in a humidified incubator to allow the cells to adhere. Cells are treated with 8 concentrations of test compounds or DMSO alone for controls (final DMSO concentration 0.1%) and incubated at 37° C. for 2 hours. Then 20 μl of 5× concentrated lysis buffer (750 mM NaCl, 100 mM Tris pH7.4, 5 mM ADTA, 5 mM EGTA, 5% Triton X-100) is added, plates are sealed and incubated for 15 minutes at 4° C. with gentle shaking. After cell lysis, 25 μl cell lysate is transferred to a MesoScale plate coated with an antibody to pS6RP Ser240/244 (MesoScale Discovery K150DGD-3) or an antibody to pAkt Ser 473 (MesoScale Discovery K151DGD-3). Plates have been blocked before by incubation with 150 μl MesoScale Discovery Blocking Solution-A for 1 hour at room temperature followed by washing with 150 μl 1× Tris wash buffer per well. After the transfer of the cell lysate to the MSD plate, the pS6RP (or pAkt) protein is captured on the coated antibody by incubation at room temperature for 1 hour with gentle shaking. After the capture step the plate is washed three times with 150 μl of 1× Tris wash buffer per well. Then 25 μl detection antibody conjugated with a Sulfo-Tag is added and incubated for 1 hour at room temperature with gentle shaking. Subsequently the antibody solution is removed and the plate is washed 3 times with 150 μl 1× Tris wash buffer per well and 150 μl Read buffer is added. The plates are analysed on a MSD 2400 Plate Reader (MesoScale Discovery). Data analysis is performed using nonlinear regression for a sigmoidal dose-response with a variable slope.

Chain of DNA-dependent protein kinase (DNA-PK) (P78527 whole entry): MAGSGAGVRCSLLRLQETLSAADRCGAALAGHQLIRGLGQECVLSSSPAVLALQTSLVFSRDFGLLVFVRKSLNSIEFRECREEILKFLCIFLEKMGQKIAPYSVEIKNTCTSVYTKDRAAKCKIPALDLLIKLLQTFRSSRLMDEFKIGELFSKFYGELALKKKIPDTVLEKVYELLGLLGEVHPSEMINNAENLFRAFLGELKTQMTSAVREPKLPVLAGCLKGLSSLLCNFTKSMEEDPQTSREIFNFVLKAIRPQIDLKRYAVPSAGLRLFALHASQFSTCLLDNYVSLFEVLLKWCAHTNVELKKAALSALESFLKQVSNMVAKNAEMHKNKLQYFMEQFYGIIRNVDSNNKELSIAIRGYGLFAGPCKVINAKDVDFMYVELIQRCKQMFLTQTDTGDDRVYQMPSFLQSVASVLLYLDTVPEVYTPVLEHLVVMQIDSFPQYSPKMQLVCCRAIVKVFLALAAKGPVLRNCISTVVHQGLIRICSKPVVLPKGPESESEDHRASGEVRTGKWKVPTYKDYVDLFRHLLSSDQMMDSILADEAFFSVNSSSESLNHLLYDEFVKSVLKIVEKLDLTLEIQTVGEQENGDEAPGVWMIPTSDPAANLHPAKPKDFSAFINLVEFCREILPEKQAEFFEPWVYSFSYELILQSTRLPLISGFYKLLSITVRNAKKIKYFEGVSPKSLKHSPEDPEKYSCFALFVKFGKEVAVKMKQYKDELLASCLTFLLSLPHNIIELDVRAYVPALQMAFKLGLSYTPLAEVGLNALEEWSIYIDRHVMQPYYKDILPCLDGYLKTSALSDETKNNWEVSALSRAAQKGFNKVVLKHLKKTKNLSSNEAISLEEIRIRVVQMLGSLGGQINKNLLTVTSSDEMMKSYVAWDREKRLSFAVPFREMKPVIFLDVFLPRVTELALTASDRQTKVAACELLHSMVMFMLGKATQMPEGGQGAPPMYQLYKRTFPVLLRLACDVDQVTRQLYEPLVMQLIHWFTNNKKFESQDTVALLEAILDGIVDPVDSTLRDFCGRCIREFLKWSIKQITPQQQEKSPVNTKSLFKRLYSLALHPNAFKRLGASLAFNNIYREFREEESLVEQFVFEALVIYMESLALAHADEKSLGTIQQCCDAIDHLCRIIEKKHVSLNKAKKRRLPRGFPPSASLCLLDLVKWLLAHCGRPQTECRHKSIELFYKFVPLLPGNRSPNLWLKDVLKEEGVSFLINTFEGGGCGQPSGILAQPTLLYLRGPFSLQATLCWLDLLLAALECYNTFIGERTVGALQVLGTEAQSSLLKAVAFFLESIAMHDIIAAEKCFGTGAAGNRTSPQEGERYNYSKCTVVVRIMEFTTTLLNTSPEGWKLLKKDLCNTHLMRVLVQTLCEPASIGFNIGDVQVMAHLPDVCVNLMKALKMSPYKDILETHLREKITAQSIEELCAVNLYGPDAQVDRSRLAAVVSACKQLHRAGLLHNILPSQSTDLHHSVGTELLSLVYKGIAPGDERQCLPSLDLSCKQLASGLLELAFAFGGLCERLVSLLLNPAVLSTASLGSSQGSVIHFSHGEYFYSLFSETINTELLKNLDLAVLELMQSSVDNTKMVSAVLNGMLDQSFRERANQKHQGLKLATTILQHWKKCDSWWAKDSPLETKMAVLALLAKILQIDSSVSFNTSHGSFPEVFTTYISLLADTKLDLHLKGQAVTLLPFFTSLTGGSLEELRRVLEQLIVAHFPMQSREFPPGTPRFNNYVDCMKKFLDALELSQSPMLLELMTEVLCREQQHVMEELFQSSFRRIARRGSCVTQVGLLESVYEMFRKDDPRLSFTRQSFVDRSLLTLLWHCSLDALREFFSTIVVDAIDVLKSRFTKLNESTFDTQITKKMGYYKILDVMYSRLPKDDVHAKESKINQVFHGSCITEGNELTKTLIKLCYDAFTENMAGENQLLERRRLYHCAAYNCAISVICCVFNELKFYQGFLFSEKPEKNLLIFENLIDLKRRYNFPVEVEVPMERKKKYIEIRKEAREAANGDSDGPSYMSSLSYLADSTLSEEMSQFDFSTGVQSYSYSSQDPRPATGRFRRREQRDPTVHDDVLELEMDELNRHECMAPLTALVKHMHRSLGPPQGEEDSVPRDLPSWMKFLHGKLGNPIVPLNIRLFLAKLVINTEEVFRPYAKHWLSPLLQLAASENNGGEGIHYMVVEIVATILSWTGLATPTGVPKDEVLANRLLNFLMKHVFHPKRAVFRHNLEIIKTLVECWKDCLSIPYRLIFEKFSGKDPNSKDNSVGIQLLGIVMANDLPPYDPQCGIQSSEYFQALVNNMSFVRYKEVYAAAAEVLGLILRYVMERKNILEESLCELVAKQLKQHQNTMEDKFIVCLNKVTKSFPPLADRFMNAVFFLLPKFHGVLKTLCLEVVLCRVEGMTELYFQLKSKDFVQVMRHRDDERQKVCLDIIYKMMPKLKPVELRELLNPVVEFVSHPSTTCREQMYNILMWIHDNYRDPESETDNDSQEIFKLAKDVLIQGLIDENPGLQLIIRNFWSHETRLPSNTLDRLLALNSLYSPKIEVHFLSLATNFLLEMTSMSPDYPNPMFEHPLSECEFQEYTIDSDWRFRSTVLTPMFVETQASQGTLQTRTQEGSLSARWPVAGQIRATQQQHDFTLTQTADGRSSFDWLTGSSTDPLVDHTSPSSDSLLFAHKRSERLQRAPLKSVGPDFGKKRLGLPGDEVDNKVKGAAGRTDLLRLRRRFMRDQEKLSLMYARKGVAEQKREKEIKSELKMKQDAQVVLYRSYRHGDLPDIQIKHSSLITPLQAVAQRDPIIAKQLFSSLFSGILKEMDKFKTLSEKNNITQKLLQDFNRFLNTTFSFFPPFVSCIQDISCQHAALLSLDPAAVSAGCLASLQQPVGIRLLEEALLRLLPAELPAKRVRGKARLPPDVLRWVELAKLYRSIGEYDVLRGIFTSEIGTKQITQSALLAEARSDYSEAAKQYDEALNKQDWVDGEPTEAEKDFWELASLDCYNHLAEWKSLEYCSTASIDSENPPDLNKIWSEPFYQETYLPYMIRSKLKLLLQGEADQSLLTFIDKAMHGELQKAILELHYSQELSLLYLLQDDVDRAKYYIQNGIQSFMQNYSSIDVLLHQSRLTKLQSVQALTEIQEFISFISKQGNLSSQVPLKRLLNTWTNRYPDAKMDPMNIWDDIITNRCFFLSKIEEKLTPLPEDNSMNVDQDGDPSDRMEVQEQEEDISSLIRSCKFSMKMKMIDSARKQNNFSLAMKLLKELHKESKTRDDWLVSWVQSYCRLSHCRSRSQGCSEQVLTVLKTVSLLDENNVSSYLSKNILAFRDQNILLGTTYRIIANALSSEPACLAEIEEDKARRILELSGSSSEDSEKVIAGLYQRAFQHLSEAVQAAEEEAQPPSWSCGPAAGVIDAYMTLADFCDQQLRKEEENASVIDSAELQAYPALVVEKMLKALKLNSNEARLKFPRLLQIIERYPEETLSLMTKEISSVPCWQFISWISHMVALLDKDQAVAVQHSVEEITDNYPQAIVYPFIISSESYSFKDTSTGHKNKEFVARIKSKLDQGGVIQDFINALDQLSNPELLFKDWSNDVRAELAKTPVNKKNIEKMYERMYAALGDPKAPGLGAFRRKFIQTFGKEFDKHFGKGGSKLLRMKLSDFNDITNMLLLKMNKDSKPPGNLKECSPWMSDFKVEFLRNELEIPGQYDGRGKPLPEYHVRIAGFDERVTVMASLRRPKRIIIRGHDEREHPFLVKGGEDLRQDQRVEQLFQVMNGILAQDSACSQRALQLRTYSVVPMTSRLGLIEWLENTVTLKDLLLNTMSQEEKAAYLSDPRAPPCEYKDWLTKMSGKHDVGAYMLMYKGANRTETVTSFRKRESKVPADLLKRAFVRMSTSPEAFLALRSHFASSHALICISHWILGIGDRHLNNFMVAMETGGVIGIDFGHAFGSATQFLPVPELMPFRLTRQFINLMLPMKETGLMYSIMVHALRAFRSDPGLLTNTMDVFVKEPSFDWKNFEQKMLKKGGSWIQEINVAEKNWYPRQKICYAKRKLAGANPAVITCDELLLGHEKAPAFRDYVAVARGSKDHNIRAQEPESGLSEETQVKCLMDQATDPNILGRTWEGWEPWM

| IC50 (mTOR) [nM] | IC50 [1] [nM] | IC50 [2] [nM] | Compound |
| --- | --- | --- | --- |
| 100 to 1000 | > 10000 |  | C[C@H]1COCCN1c1nc(-c2ccc(NC(=O)NC3CC3)cc2)nc2c1S(=O)(=O)C(C)(C)C2 [Example 37, (S)-1-cyclopropyl-3-(4-(6,6-dimethyl-4-(3-methylmorpholino)-5,5-dioxido-6,7-dihydrothieno[3,2-d]pyrimidin-2-yl)phenyl)urea] |
| < 100 | > 10000 | 100 to 1000 | O=C(Nc1ccc(-c2nc3c(c(N4CCOCC4)n2)CS(=O)(=O)C3)cc1)NC1CC1 [Example 18, 1-cyclopropyl-3-(4-(4-morpholino-6,6-dioxido-5,7-dihydrothieno[3,4-d]pyrimidin-2-yl)phenyl)urea] |
| < 100 |  |  | CC1c2c(N3CCOCC3)nc(-c3ccc(NC(=O)NCCF)cc3)nc2C(C)(C)S1(=O)=O (stereo not drawn) [Example 81, 1-(2-fluoroethyl)-3-(4-(5,7,7-trimethyl-4-morpholino-6,6-dioxido-5,7-dihydrothieno[3,4-d]pyrimidin-2-yl)phenyl)urea] |
| < 100 | 1000 to 10000 | 1000 to 10000 | C[C@H]1COCCN1c1nc(-c2ccc(NC(=O)NCCO)cc2)nc2c1CS(=O)(=O)C2 [Example 13, (S)-1-(2-hydroxyethyl)-3-(4-(4-(3-methylmorpholino)-6,6-dioxido-5,7-dihydrothieno[3,4-d]pyrimidin-2-yl)phenyl)urea] |
| 100 to 1000 |  | < 100 | C[C@@H]1COCCN1c1nc(-c2ccc(NC(=O)NC3CC3)cc2)nc2c1CS(=O)(=O)C2 [Example 17, (R)-1-cyclopropyl-3-(4-(4-(3-methylmorpholino)-6,6-dioxido-5,7-dihydrothieno[3,4-d]pyrimidin-2-yl)phenyl)urea] |
| < 100 | > 3000 | 100 to 1000 | C[C@H]1COCCN1c1nc(-c2ccc(NC(=O)NCCF)cc2)nc2c1CS(=O)(=O)C2 [Example 14, (S)-1-(2-fluoroethyl)-3-(4-(4-(3-methylmorpholino)-6,6-dioxido-5,7-dihydrothieno[3,4-d]pyrimidin-2-yl)phenyl)urea] |
| < 100 |  | < 100 | C[C@H]1COCCN1c1nc(-c2ccc(NC(=O)NC3CC3)cc2)nc2c1CS(=O)(=O)C2(C)C [Example 30, (S)-1-cyclopropyl-3-(4-(7,7-dimethyl-4-(3-methylmorpholino)-6,6-dioxido-5,7-dihydrothieno[3,4-d]pyrimidin-2-yl)phenyl)urea] |
| < 100 |  |  | C[C@@H]1c2c(N3CCOC[C@@H]3C)nc(-c3ccc(NC(=O)NC4CC4)cc3)nc2C(C)(C)S1(=O)=O [Example 82, 1-cyclopropyl-3-(4-((R)-5,7,7-trimethyl-4-((S)-3-methylmorpholino)-6,6-dioxido-5,7-dihydrothieno[3,4-d]pyrimidin-2-yl)phenyl)urea] |
| < 100 | > 10000 | 100 to 1000 | C[C@H]1COCCN1c1nc(-c2ccc(NC(=O)NC3CC3)cc2)nc2c1CS(=O)(=O)CC2 [Example 4, (S)-1-cyclopropyl-3-(4-(4-(3-methylmorpholino)-6,6-dioxido-7,8-dihydro-5H-thiopyrano[4,3-d]pyrimidin-2-yl)phenyl)urea] |
| < 100 |  | < 100 | C[C@H]1COCCN1c1nc(-c2ccc(NC(=O)NC3CC3)cc2)nc2c1CSCC2 [Example 3, (S)-1-cyclopropyl-3-(4-(4-(3-methylmorpholino)-7,8-dihydro-5H-thiopyrano[4,3-d]pyrimidin-2-yl)phenyl)urea] |
| 100 to 1000 |  | < 100 | O=C(NCC(F)F)Nc1ccc(-c2nc3c(c(N4CC5CCC(C4)O5)n2)CS(=O)(=O)C3)cc1 [Example 24, 1-(4-(4-(8-oxa-3-azabicyclo[3.2.1]octan-3-yl)-6,6-dioxido-5,7-dihydrothieno[3,4-d]pyrimidin-2-yl)phenyl)-3-(2,2-difluoroethyl)urea] |
| < 100 |  | 100 to 1000 | O=C(Nc1ccc(-c2nc3c(c(N4CC5CCC(C4)O5)n2)CS(=O)(=O)C3)cc1)NC1CC1 [Example 20, 1-(4-(4-(8-oxa-3-azabicyclo[3.2.1]octan-3-yl)-6,6-dioxido-5,7-dihydrothieno[3,4-d]pyrimidin-2-yl)phenyl)-3-cyclopropylurea] |
| < 100 |  | < 100 | CC1c2nc(-c3ccc(NC(=O)NC4CC4)cc3)nc(N3CCOC[C@@H]3C)c2CS1(=O)=O (stereo partly drawn) [Example 7, 1-cyclopropyl-3-(4-(7-methyl-4-((S)-3-methylmorpholino)-6,6-dioxido-5,7-dihydrothieno[3,4-d]pyrimidin-2-yl)phenyl)urea] |
|  | > 10000 | < 100 | CCNC(=O)Nc1ccc(-c2nc3c(c(N4CCOC[C@@H]4C)n2)CS(=O)(=O)C3)cc1 [Example 11, (S)-1-ethyl-3-(4-(4-(3-methylmorpholino)-6,6-dioxido-5,7-dihydrothieno[3,4-d]pyrimidin-2-yl)phenyl)urea] |
| < 100 |  | 100 to 1000 | CNC(=O)Nc1ccc(-c2nc3c(c(N4CC5CCC(C4)O5)n2)CS(=O)(=O)C3)cc1 [Example 21, 1-(4-(4-(8-oxa-3-azabicyclo[3.2.1]octan-3-yl)-6,6-dioxido-5,7-dihydrothieno[3,4-d]pyrimidin-2-yl)phenyl)-3-methylurea] |
| < 100 |  | < 100 | CC1c2c(nc(-c3ccc(NC(=O)NC4CC4)cc3)nc2N2CCOC[C@@H]2C)CS1(=O)=O (mixture of isomers) [Example 6, 1-cyclopropyl-3-(4-(5-methyl-4-((S)-3-methylmorpholino)-6,6-dioxido-5,7-dihydrothieno[3,4-d]pyrimidin-2-yl)phenyl)urea] |
| 100 to 1000 |  | 100 to 1000 | CC(C)NC(=O)Nc1ccc(-c2nc3c(c(N4CCOC[C@@H]4C)n2)CS(=O)(=O)C3)cc1 [Example 25, (S)-1-isopropyl-3-(4-(4-(3-methylmorpholino)-6,6-dioxido-5,7-dihydrothieno[3,4-d]pyrimidin-2-yl)phenyl)urea] |
| < 100 | > 10000 |  | C[C@H]1COCCN1c1nc(-c2ccc(NC(=O)Nc3cccnc3)cc2)nc2c1CS(=O)(=O)C2 [Example 36, (S)-1-(4-(4-(3-methylmorpholino)-6,6-dioxido-5,7-dihydrothieno[3,4-d]pyrimidin-2-yl)phenyl)-3-(pyridin-3-yl)urea] |
| 1000 to 10000 |  |  | C[C@@H]1CN(c2nc(-c3ccc(NC(=O)NC4CC4)cc3)nc3c2CS(=O)(=O)C3)C[C@H](C)O1 [Example 19, 1-cyclopropyl-3-(4-(4-((2S,6R)-2,6-dimethylmorpholino)-6,6-dioxido-5,7-dihydrothieno[3,4-d]pyrimidin-2-yl)phenyl)urea] |
| < 100 |  | < 100 | CC1c2c(nc(-c3ccc(NC(=O)NC4CC4)cc3)nc2N2CC3CCC(C2)O3)CS1(=O)=O (stereo not drawn) [Example 34, 1-(4-(4-(8-oxa-3-azabicyclo[3.2.1]octan-3-yl)-5-methyl-6,6-dioxido-5,7-dihydrothieno[3,4-d]pyrimidin-2-yl)phenyl)-3-cyclopropylurea] |
| < 100 |  | 100 to 1000 | C[C@H]1COCCN1c1nc(-c2ccc(NC(=O)NCC(F)F)cc2)nc2c1CS(=O)(=O)C2 [Example 23, (S)-1-(2,2-difluoroethyl)-3-(4-(4-(3-methylmorpholino)-6,6-dioxido-5,7-dihydrothieno[3,4-d]pyrimidin-2-yl)phenyl)urea] |

| Compound | IC50 (mTOR) [nM] | IC50 [1] [nM] | IC50 [2] [nM] |
| --- | --- | --- | --- |
| O=C(Nc1ccc(-c2nc3c(c(N4C5CCC4COC5)n2)CS(=O)(=O)C3)cc1)NC1CC1 [Example 26, 1-(4-(4-(3-oxa-8-azabicyclo[3.2.1]octan-8-yl)-6,6-dioxido-5,7-dihydrothieno[3,4-d]pyrimidin-2-yl)phenyl)-3-cyclopropylurea] | < 100 | > 10000 | < 100 |
| CC1c2c(nc(-c3ccc(NC(=O)NC4CC4)cc3)nc2N2C3CCC2COC3)CS1(=O)=O (stereo not drawn) [Example 33, 1-(4-(4-(3-oxa-8-azabicyclo[3.2.1]octan-8-yl)-5-methyl-6,6-dioxido-5,7-dihydrothieno[3,4-d]pyrimidin-2-yl)phenyl)-3-cyclopropylurea] | < 100 |  | < 100 |
